The subject of series [1] is P388. Put plainly: Antitumor activity against mouse P388 cells xenografted mouse at 0.95 mg/kg/day for 10 days by 3PS assay. The series is classed as functional.
A further series concerns Mus musculus. Put plainly: Toxicity in mouse P388 cells xenografted mouse at 0.22 mg/kg/day for 10 days. The following applies: in vivo, 240 h.
The subject of series [2] is P388. Nature of the series: Antitumor activity against mouse P388 cells in at 1.4 mg/kg by in vivo 3PS assay. The class given is functional.
Series [3] relates to A2780. Put plainly: Antitumor activity against human A2780 cell xenografted athymic mouse at 1000 ug/kg/day. The class given is functional. The following applies: read-out: TGI. On the technique in general: A xenograft is tissue or cells of one species grown in another, often human tumour cells in immunodeficient mice.
In series [4] the test system is L1210. Nature of the series: Antitumor activity against mouse L1210 cell xenografted mouse at 15000 ug/kg. The series is classed as functional.
For series [5], the system named is P388. Nature of the series: Antitumor activity against mouse P388 cells at 250 ug/kg by in vivo 3PS assay. The series is classed as functional.
Series [6] in a line: Antitumor activity against multidrug resistant human KBv200 cell xenografted mouse assessed as inhibition of tumor growth at 900 ug/kg administered every 2 days for 6 days. The class given is functional.
The test system of a further series is KB. Nature of the series: Antitumor activity against human KB cell xenografted mouse assessed as inhibition of tumor growth at 900 ug/kg administered every 2 days for 6 days. The series is classed as functional.
For series [7], the system named is A2780. Nature of the series: Antitumor activity against human A2780 cell xenografted athymic mouse at 125 ug/kg/day. The class given is functional. The note with it: read-out: TGI.
Series [8] deals with L1210. Put plainly: Antitumor activity against mouse L1210 cell xenografted mouse at 400 ug/kg. The class given is functional.
In series [9] the test system is P388. Put plainly: Antitumor activity against mouse P388 cells at 25 ug/kg by in vivo 3PS assay. The series is classed as functional.
Series [10] relates to P388. Put plainly: Antitumor activity against mouse P388 cells xenografted mouse at 0.025 mg/kg/day for 10 days by 3PS assay. The series is classed as functional.
Series [11] concerns L1210. Nature of the series: Antitumor activity against mouse L1210 cell xenografted mouse at 200 ug/kg. The class given is functional.

Structures are written as SMILES.

`CCCCCCCCCCCC[C@@H](O)[C@H]1CC[C@H]([C@H](O)CCCC[C@H](O)CCCCC[C@@H](O)CC2=CC(C)OC2=O)O1` (some centres undefined) [ANNONACIN]: in the series with P388 [1], the T/C (as a rule, the ratio of treated to control) was found to be 124%.

Take `CCCCCCCCCC[C@@H](O)[C@H]1CC[C@H]([C@H]2CC[C@H]([C@H](O)CCCCCCCCCC[C@@H](O)CC3=C[C@H](C)OC3=O)O2)O1` [ASIMICIN]: in the series on Mus musculus, the Activity entry is “Toxic”. `CCCCCCCCCC[C@H](OC(C)=O)[C@H]1CC[C@H]([C@H]2CC[C@H]([C@H](O)CCCCCCCCCCCCC3=C[C@H](C)OC3=O)O2)O1` [UVARICIN] registered a T/C in the series on P388 [2] of 157%. Regarding `CCCCCCCCCC[C@H](O)[C@H]1CC[C@H]([C@H](O)CC[C@H](O)[C@@H]2CC[C@@H](CCCCCCC[C@@H](O)CC3=C[C@H](C)OC3=O)O2)O1` [BULLATALICIN], the inhibition in vivo at 1 mg/kg/day in the series with A2780 [3] was determined as 75%. For `CC(=O)O[C@H]1C(=O)[C@@]2(C)[C@H]([C@H](OC(=O)c3ccccc3)[C@]3(O)C[C@H](OC(=O)[C@H](O)[C@@H](NC(=O)c4ccccc4)c4ccccc4)C(C)=C1C3(C)C)[C@]1(OC(C)=O)CO[C@@H]1C[C@@H]2O` [PACLITAXEL], in the series on L1210 [4], the T/C was 139%. Compound `CCCCCCCCCCC(O)C1CCC(C2CCC(C(O)CCCCCCCCCCC(O)CC3=CC(C)OC3=O)O2)O1` (centres undefined) [ROLLINIASTATIN] yielded a T/C in the series on P388 [5] of 128%. In the series on P388 [2], `CCCCCCCCCCC(O)C1CCC(C2CCC(C(O)C(=O)CCCCCCCCCCCC3CC(C)OC3=O)O2)O1` (centres undefined) [ROLLINONE] yielded a T/C of 147%. Turning to `CCCCC[C@@H](O)[C@H](O)CCC[C@@H](O)[C@H]1CC[C@H]([C@H]2CC[C@H]([C@H](O)CCCCCCCCCCCCC3=C[C@H](C)OC3=O)O2)O1`, the figures for the inhibition in vivo at 0.9 mg/kg (in series [6]; in the series with KB) were 56.5% and 52.3%, respectively. For the compound `CCCCCCCCCC[C@H](O)[C@H]1CC[C@H]([C@H]2CC[C@H]([C@H](O)CCCCCCCCCC[C@@H]3CC(CC(C)=O)C(=O)O3)O2)O1` (some centres undefined) [BULLATACINONE], in the series with A2780 [7], the inhibition in vivo at 0.125 mg/kg/day amounted to 52%. In addition, the T/C in the series with L1210 [8] is on record as 144%. Turning to `CCCCCCCCCCC(O)C1CCC(C2CCC(C(O)CCCCCCCC[C@H](O)CC3=C[C@@H](C)OC3=O)O2)O1` (some centres undefined) [ASIMICIN], the results for the T/C in the series with P388 [9], with P388 [10] and in the series with L1210 [11] were 124%, 124% and 131%, respectively.

Values taken from ChEMBL document CHEMBL1155127, “Paw paw and cancer: annonaceous acetogenins from discovery to commercial products” (J Nat Prod, 2008).
